Test results: patent US20130072440A1, “CO-CRYSTALS AND PHARMACEUTICAL FORMULATIONS COMPRISING THE SAME” (VERTEX PHARMACEUTICALS INCORPORATED, priority 2010, published 2013)
Values after ≈ are worked out from the molar mass of the structure shown.

Assay: Kinetic solubility in Fed State Simulated Intestinal Fluid (FESSIF)
Assay type: physicochemical
Details: thermodynamic from solid
Procedure: Kinetic solubility profiles of VX-950 co-crystal fluid bed granules were determined in Fed State Simulated Intestinal Fluid (FESSIF).
[…] of VX-950 co-crystal fluid-bed granules were dissolved in 100 ml of FESSIF.
The experiment of Example was repeated with 166.51 mg of VX-950 co-crystal fluid-bed granules.
Kinetic solubility of the following substances or formulations were measured in FESSIF: […]

- solubility kinetic at 15 min: 5 µg/mL (≈ 7.35 µM)
- solubility kinetic at 30 min: 5 µg/mL (≈ 7.35 µM)
- solubility kinetic at 45 min: 5 µg/mL (≈ 7.35 µM)
- solubility kinetic at 60 min: 4.5 µg/mL (≈ 6.62 µM)
- solubility kinetic at 90 min: 4 µg/mL (≈ 5.88 µM)
- solubility kinetic at 180 min: 4 µg/mL (≈ 5.88 µM)
SMILES: CCC[C@H](NC(=O)[C@@H]1[C@H]2CCC[C@H]2CN1C(=O)[C@@H](NC(=O)[C@@H](NC(=O)c1cnccn1)C1CCCCC1)C(C)(C)C)C(=O)C(=O)NC1CC1 [Crystalline VX-950]
